From patent US20200375919A1, “BONE GRAFT MATERIAL WITH 4-HEXYLRESORCINOL THAT AFFECTS BONE FORMATION” (MANTIZ LOGITECH CO., LTD., priority 2019, published 2020)

Experiments:
ALP, Runx2, Osx, Ocn = experiment: mRNA expression of osteoblast differentiation markers; format: cell-based; conditions: 0.0194% (=10^-4M) compared with 3% or control; FIGS. 4A to 4D
human primary cells = experiment: MTS measuring of cytotoxicity and cell viability; format: cell-based; conditions: FIG. 1
Description: MTS Measuring Method of Cytotoxicity and Cell Viability
Mitochondrial NADH-dehydrogenase forms formazan having a color by reducing a tetrazolium salt such as MTS. Therefore, as the number of cells which express dehydrogenase, i.e., living cells is proportional to formation of formazan, the living cells can be quantified.
After seeding human primary cells, adhering the seeded-human primary cells to a cell plate, and treating the seeded-human primary cells adhered to the cell plate with an MTS Cell Proliferation Assay Kit (ab197010, UK, abcam) every 24 hours and 48 hours, resulting materials were confirmed by using a wavelength of 490 nm.

osteoblast-like cells [1] = experiment: Alizarin Red S staining (late osteoblast differentiation, calcium accumulation); format: cell-based, human; conditions: 0.0194% (=10^-4M) compared with 3% and control; FIG. 3
Experimental: Method of Measuring Bone Differentiation Degrees by Dyeing Calcium Accumulation of Bone-Differentiated Cells (Alizarin Red S Staining)
(§1) In vitro tests were performed by using osteoblast-like cells through a human primary cell culture. A cell survival environment was progressed by supplementing DMEM (Dulbecco Modified Eagle's Medium)-high glucose (PAA Laboratories, Pasching, Austria) and 20% fetal bovine serum (PAA, Canada) and comprising 1% penicillin/streptomycin (100×), and media were exchanged every other day. Resulting materials were confirmed on the seventh day of differentiation experiments.

ALP and Runx2 = experiment: Western blot protein level; format: cell-based; conditions: 0.0194% compared with 3% or control; FIG. 5
osteoblast-like cells [2] = experiment: Alkaline phosphatase activity (early-stage osteoblastic differentiation); format: cell-based, human; conditions: 0.0194% (=10^-4M) compared with 3% and control; seventh day; FIG. 2
Experimental: Method of Measuring Cell Culture and Alkaline Phosphatase Activities
as §1, with “experiments by using alkaline phosphatase (Sigma, St. Louis, Mo., USA).” for “experiments.”

osteoclasts = experiment: Differentiation of osteoclasts (TRAP staining); format: cell-based, human; conditions: FIGS. 6A and 6B
Experimental: Method of Measuring Differentiation Abilities of Osteoclasts (TRAP Staining)
as §1, with “osteoclasts” for “osteoblast-like cells”, “bone marrow derived macrophages” for “primary cell”, “once a” for “every other”, “fifth” for “seventh”, “experiments through TRAP staining.” for “experiments.”

SMILES: CCCCCCc1ccc(O)cc1O [4-hexylresorcinol]
- mRNA expression level of ALP, Runx2, Osx, Ocn (ALP, Runx2, Osx, Ocn): larger expression level
- cell proliferation, low versus high concentration (human primary cells; 0.0194% compared with 3%): cell proliferation is more active
- cell viabilities versus control (human primary cells; 4-hexylresorcinol concentrations of 3% and 0.0194% (=10^-4M)): higher than a control
- calcification (Alizarin Red S staining) (osteoblast-like cells [1]): high calcification
- ALP and Runx2 protein expression levels (western blot) (ALP and Runx2): higher
- ALP activity (osteoblast-like cells [2]): high ALP activity
- effect on differentiation of osteoclasts, low versus high concentration (osteoclasts; 0.0194% compared with 3%): more excellent
- differentiation of osteoclasts (osteoclasts; treating 4-hexylresorcinol, fifth day): inhibited
